Data published in ChEMBL document CHEMBL4765379, “Synthesis and biological evaluation of diaryl urea derivatives designed as potential anticarcinoma agents using de novo structure-based lead optimization approach” (Eur J Med Chem, 2020).
Each block holds one compound with its values, some of them ahead of it. Calls of active or inactive are those of the source. The rule behind the calls is not given here.

Columns and labels:
HT-29 [1] = assay: Antiproliferative activity against human HT-29 cells assessed as reduction in cell growth incubated for 48 hrs by MTT assay; format: functional, cell-based; conditions: HT-29, 48 h
A549 = assay: Antiproliferative activity against human A549 cells assessed as reduction in cell growth incubated for 48 hrs by MTT assay; format: functional, cell-based; conditions: A549, 48 h
HT-29 [2] = assay: Induction of cell cycle arrest in human HT-29 cells assessed as G2 phase accumulation at 10 uM incubated for 48 hrs by PI staining based flow cytometry analysis (reference value: 11.7 %); format: functional
HT-29 [3] = assay: Induction of cell cycle arrest in human HT-29 cells assessed as reduction in CDK4 level incubated for 48 hrs by Western blot analysis; format: functional, cell-based; conditions: dose 1-10 µM
HT-29 [4] = assay: Induction of apoptosis in human HT-29 cells assessed as viable cells at 5 uM incubated for 48 hrs by annexin V-FITC and PI staining based flow cytometry analysis (reference value: 88.2 %); format: functional; conditions: read-out: Activity
HT-29 [5] = assay: Induction of cell cycle arrest in human HT-29 cells assessed as S phase accumulation at 1 uM incubated for 48 hrs by PI staining based flow cytometry analysis (reference value: 36.98 %); format: functional
HT-29 [6] = assay: Induction of apoptosis in human HT-29 cells assessed as late apoptotic cells at 10 uM incubated for 48 hrs by annexin V-FITC and PI staining based flow cytometry analysis (reference value: 1.08 %); format: functional
HT-29 [7] = assay: Induction of cell cycle arrest in human HT-29 cells assessed as G1 phase accumulation at 1 uM incubated for 48 hrs by PI staining based flow cytometry analysis (reference value: 56.39 %); format: functional
HT-29 [8] = assay: Induction of apoptosis in human HT-29 cells assessed as late apoptotic cells at 1 uM incubated for 48 hrs by annexin V-FITC and PI staining based flow cytometry analysis (reference value: 1.08 %); format: functional
HT-29 [9] = assay: Induction of cell cycle arrest in human HT-29 cells assessed as S phase accumulation at 5 uM incubated for 48 hrs by PI staining based flow cytometry analysis (reference value: 36.98 %); format: functional
HT-29 [10] = assay: Induction of cell cycle arrest in human HT-29 cells assessed as G2 phase accumulation at 5 uM incubated for 48 hrs by PI staining based flow cytometry analysis (reference value: 11.7 %); format: functional
HT-29 [11] = assay: Induction of cell cycle arrest in human HT-29 cells assessed as G1 phase accumulation at 10 uM incubated for 48 hrs by PI staining based flow cytometry analysis (reference value: 56.39 %); format: functional
HT-29 [12] = assay: Induction of apoptosis in human HT-29 cells assessed as early apoptotic cells at 5 uM incubated for 48 hrs by annexin V-FITC and PI staining based flow cytometry analysis (reference value: 1.01 %); format: functional
HT-29 [13] = assay: Induction of apoptosis in human HT-29 cells assessed as viable cells at 10 uM incubated for 48 hrs by annexin V-FITC and PI staining based flow cytometry analysis (reference value: 88.2 %); format: functional; conditions: read-out: Activity
HT-29 [14] = assay: Induction of apoptosis in human HT-29 cells assessed as necrotic cells at 5 uM incubated for 48 hrs by annexin V-FITC and PI staining based flow cytometry analysis (reference value: 9.68 %); format: functional
[15] = biological target: Vascular endothelial growth factor receptor 2 (Homo sapiens) (UniProt P35968); assay: Inhibition of VEGFR2 in human HT-29 cells assessed as reduction in c-Raf expression incubated for 48 hrs by Western blot analysis; format: cell-based; conditions: dose 1-10 µM
Chain of Vascular endothelial growth factor receptor 2 (Homo sapiens) (P35968 whole entry): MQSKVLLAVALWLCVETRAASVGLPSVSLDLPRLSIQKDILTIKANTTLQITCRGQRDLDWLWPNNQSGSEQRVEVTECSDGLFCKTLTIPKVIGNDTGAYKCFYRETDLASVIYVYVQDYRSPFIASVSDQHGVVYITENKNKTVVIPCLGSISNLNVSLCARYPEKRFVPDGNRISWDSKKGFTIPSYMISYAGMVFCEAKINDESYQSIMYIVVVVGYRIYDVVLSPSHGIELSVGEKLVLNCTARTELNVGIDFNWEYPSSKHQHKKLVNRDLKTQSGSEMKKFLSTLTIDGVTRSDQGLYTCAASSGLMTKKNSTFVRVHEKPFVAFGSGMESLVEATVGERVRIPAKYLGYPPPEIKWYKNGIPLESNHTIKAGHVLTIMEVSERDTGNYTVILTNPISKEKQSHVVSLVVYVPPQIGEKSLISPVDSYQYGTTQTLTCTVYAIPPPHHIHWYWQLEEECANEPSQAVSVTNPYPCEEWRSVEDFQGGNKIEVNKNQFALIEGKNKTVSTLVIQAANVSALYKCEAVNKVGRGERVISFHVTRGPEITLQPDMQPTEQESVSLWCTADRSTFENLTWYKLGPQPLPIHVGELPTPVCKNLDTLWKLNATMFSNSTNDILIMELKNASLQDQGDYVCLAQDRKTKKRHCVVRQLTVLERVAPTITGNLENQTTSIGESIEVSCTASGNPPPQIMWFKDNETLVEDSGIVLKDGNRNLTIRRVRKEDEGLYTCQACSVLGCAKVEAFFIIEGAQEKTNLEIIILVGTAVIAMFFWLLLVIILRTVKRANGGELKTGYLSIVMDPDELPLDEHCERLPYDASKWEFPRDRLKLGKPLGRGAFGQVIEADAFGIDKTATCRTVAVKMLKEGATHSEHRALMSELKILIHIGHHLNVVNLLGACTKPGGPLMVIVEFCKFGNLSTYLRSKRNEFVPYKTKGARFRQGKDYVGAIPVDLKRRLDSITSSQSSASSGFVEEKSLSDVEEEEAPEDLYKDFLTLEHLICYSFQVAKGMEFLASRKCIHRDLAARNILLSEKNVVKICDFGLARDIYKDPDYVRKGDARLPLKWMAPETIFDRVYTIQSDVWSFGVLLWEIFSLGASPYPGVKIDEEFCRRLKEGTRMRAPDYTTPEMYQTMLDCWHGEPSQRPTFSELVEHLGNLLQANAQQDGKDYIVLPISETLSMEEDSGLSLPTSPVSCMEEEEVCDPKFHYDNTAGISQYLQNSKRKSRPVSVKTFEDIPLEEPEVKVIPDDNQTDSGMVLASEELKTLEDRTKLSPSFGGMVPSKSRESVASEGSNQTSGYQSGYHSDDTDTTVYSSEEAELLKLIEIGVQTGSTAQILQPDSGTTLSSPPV

[16] = biological target: Vascular endothelial growth factor receptor 2 (Homo sapiens) (UniProt P35968); assay: Inhibition of VEGFR2 in human HT-29 cells assessed as reduction in MEK expression incubated for 48 hrs by Western blot analysis; format: cell-based; conditions: dose 1-10 µM
[17] = biological target: Vascular endothelial growth factor receptor 2 (Homo sapiens) (UniProt P35968); assay: Inhibition of VEGFR2 in human HT-29 cells assessed as reduction in VEGFR2 phosphorylation incubated for 48 hrs by Western blot analysis; format: cell-based; conditions: dose 1-10 µM
HT-29 [18] = assay: Induction of apoptosis in human HT-29 cells assessed as downregulation of Bcl2 expression at 1 to 10 uM incubated for 48 hrs by Western blot analysis; format: functional, cell-based; conditions: dose 1-10 µM
HT-29 [19] = assay: Induction of apoptosis in human HT-29 cells assessed as late apoptotic cells incubated for 48 hrs by annexin V-FITC and PI staining based flow cytometry analysis; format: functional, cell-based; conditions: dose 1-10 µM
HT-29 [20] = assay: Induction of apoptosis in human HT-29 cells assessed as necrotic cells at 10 uM incubated for 48 hrs by annexin V-FITC and PI staining based flow cytometry analysis (reference value: 9.68 %); format: functional
HT-29 [21] = assay: Induction of apoptosis in human HT-29 cells assessed as late apoptotic cells at 5 uM incubated for 48 hrs by annexin V-FITC and PI staining based flow cytometry analysis (reference value: 1.08 %); format: functional
[22] = biological target: Vascular endothelial growth factor receptor 2 (Homo sapiens) (UniProt P35968); assay: Inhibition of VEGFR2 in human HT-29 cells assessed as reduction in ERK1/2 expression incubated for 48 hrs by Western blot analysis; format: cell-based; conditions: dose 1-10 µM
HT-29 [23] = assay: Induction of apoptosis in human HT-29 cells assessed as increase in caspase3 expression incubated for 48 hrs by Western blot analysis; format: functional, cell-based; conditions: dose 1-10 µM
HT-29 [24] = assay: Induction of apoptosis in human HT-29 cells assessed as early apoptotic cells incubated for 48 hrs by annexin V-FITC and PI staining based flow cytometry analysis; format: functional, cell-based; conditions: dose 1-10 µM
HT-29 [25] = assay: Induction of apoptosis in human HT-29 cells assessed as early apoptotic cells at 1 uM incubated for 48 hrs by annexin V-FITC and PI staining based flow cytometry analysis (reference value: 1.01 %); format: functional
HT-29 [26] = assay: Induction of apoptosis in human HT-29 cells assessed as viable cells at 1 uM incubated for 48 hrs by annexin V-FITC and PI staining based flow cytometry analysis (reference value: 88.2 %); format: functional; conditions: read-out: Activity
[27] = biological target: Vascular endothelial growth factor receptor 2 (Homo sapiens) (UniProt P35968); assay: Inhibition of VEGFR2 in human HT-29 cells assessed as reduction in ERK1/2 phosphorylation incubated for 48 hrs by Western blot analysis; format: cell-based; conditions: dose 1-10 µM
HT-29 [28] = assay: Induction of apoptosis in human HT-29 cells assessed as early apoptotic cells at 10 uM incubated for 48 hrs by annexin V-FITC and PI staining based flow cytometry analysis (reference value: 1.01 %); format: functional
HT-29 [29] = assay: Induction of apoptosis in human HT-29 cells assessed as necrotic cells at 1 uM incubated for 48 hrs by annexin V-FITC and PI staining based flow cytometry analysis (reference value: 9.68 %); format: functional
HT-29 [30] = assay: Induction of cell cycle arrest in human HT-29 cells assessed as subG1 phase accumulation at 5 uM incubated for 48 hrs by PI staining based flow cytometry analysis (reference value: 0.06 %); format: functional
HT-29 [31] = assay: Induction of ROS accumulation in human HT-29 cells at 1 to 10 uM incubated for 12 hrs by […] and DAPI staining based luminescence spectrometer; format: functional, cell-based; conditions: dose 1-10 µM
HT-29 [32] = assay: Induction of cell cycle arrest in human HT-29 cells assessed as G1 phase accumulation at 5 uM incubated for 48 hrs by PI staining based flow cytometry analysis (reference value: 56.39 %); format: functional
HT-29 [33] = assay: Induction of cell cycle arrest in human HT-29 cells assessed as subG1 phase accumulation at 10 uM incubated for 48 hrs by PI staining based flow cytometry analysis (reference value: 0.06 %); format: functional
HT-29 [34] = assay: Induction of apoptosis in human HT-29 cells assessed as increase in ratio of Bax/Bcl2 at 1 to 10 uM incubated for 48 hrs by Western blot analysis; format: functional, cell-based; conditions: dose 1-10 µM
HT-29 [35] = assay: Induction of cell cycle arrest in human HT-29 cells assessed as S phase accumulation at 10 uM incubated for 48 hrs by PI staining based flow cytometry analysis (reference value: 36.98 %); format: functional
HT-29 [36] = assay: Induction of cell cycle arrest in human HT-29 cells assessed as G2 phase accumulation at 1 uM incubated for 48 hrs by PI staining based flow cytometry analysis (reference value: 11.7 %); format: functional
HT-29 [37] = assay: Induction of cell cycle arrest in human HT-29 cells assessed as reduction in cyclin D1 level incubated for 48 hrs by Western blot analysis; format: functional, cell-based; conditions: dose 1-10 µM
HT-29 [38] = assay: Induction of cell cycle arrest in human HT-29 cells assessed as subG1 phase accumulation at 1 uM incubated for 48 hrs by PI staining based flow cytometry analysis (reference value: 0.06 %); format: functional
HT-29 [39] = assay: Induction of apoptosis in human HT-29 cells assessed as upregulation of Bax expression at 1 to 10 uM incubated for 48 hrs by Western blot analysis; format: functional, cell-based; conditions: dose 1-10 µM

IC50 (HT-29 [1]): 19.9 µM | IC50 (A549): 18.9 µM
Compound: Cc1ccc(C(=O)Oc2ccc(NC(=O)Nc3ccccc3)cc2)cc1

IC50 (HT-29 [1]): 94.4 µM | IC50 (A549): 29.7 µM
Compound: O=C(Nc1ccc(F)cc1)Nc1ccc(OC(=O)c2ccccc2)cc1

IC50 (HT-29 [1]): 56 µM | IC50 (A549): 24.7 µM
Compound: O=C(Nc1ccc(Cl)cc1)Nc1ccc(OC(=O)c2ccccc2)cc1

IC50 (HT-29 [1]): 104 µM | IC50 (A549): 47.7 µM
Compound: Cc1ccc(NC(=O)Nc2ccc(OC(=O)c3ccccc3)cc2)cc1

IC50 (HT-29 [1]): 128 µM | IC50 (A549): 38.5 µM
Compound: O=C(Nc1ccccc1)Nc1ccc(OC(=O)c2ccc(F)cc2)cc1

IC50 (HT-29 [1]): 3.38 µM | inhibition [15]: Dose-dependent effect | inhibition [16]: Dose-dependent effect | inhibition [17]: Dose-dependent effect | inhibition [22]: Dose-dependent effect | inhibition [27]: Dose-dependent effect | IC50 (A549): 0.63 µM
Compound: O=C(Cc1ccccc1)Nc1ccc(NC(=O)Nc2ccccc2)cc1
Activity (HT-29 [2]): 27.49% | Activity (HT-29 [3]): Dose-dependent effect | viability at 5 µM (HT-29 [4]): 86.8% | Activity (HT-29 [5]): 29.67% | Activity (HT-29 [6]): 5.46% | Activity (HT-29 [7]): 61.96% | Activity (HT-29 [8]): 1.93% | Activity (HT-29 [9]): 18.48% | Activity (HT-29 [10]): 18.18% | Activity (HT-29 [11]): 60.9% | Activity (HT-29 [12]): 3.09% | viability at 10 µM (HT-29 [13]): 85.6% | Activity (HT-29 [14]): 7.95% | Activity (HT-29 [18]): Active | Activity (HT-29 [19]): Dose-dependent effect | Activity (HT-29 [20]): 6.75% | Activity (HT-29 [21]): 2.18% | Activity (HT-29 [23]): Dose-dependent effect | Activity (HT-29 [24]): Dose-dependent effect | Activity (HT-29 [25]): 1.46% | viability at 1 µM (HT-29 [26]): 82.4% | Activity (HT-29 [28]): 2.22% | Activity (HT-29 [29]): 14.2% | Activity (HT-29 [30]): 7.45% | Activity (HT-29 [31]): Active | Activity (HT-29 [32]): 63.44% | Activity (HT-29 [33]): 3.45% | Activity (HT-29 [34]): Active | Activity (HT-29 [35]): 15.84% | Activity (HT-29 [36]): 11.64% | Activity (HT-29 [37]): Dose-dependent effect | Activity (HT-29 [38]): 0.43% | Activity (HT-29 [39]): Active

IC50 (HT-29 [1]): 151 µM | IC50 (A549): 30.1 µM
Compound: O=C(Nc1ccc(OC(=O)c2ccccc2)cc1)Nc1ccc(Cl)c(C(F)(F)F)c1

IC50 (HT-29 [1]): 33.8 µM | IC50 (A549): 16.1 µM
Compound: COc1ccc(C(=O)Oc2ccc(NC(=O)Nc3ccc(Cl)c(C(F)(F)F)c3)cc2)cc1

IC50 (HT-29 [1]): 12.7 µM | IC50 (A549): 23.9 µM
Compound: O=C(Nc1ccccc1)Nc1ccc(NC(=O)c2ccccc2)cc1
